Experimental data reported in patent publication US10463644B2, “Uses of sesquiterpene lactone compounds and their derivatives in drugs preparation” (ACCENDATECH, priority 2013, dated 2019).
Where two headings read alike, the source gives them in different places.

What was measured:
[1] = system: IL-1β secreted by synoviocyte; test: Content of IL-1β in culture supernatant of synoviocyte of RA model rats given test compound; type: in vivo; conditions: rat RA model, dose 30 mg/kg.2d; normal control 0.16 ± 0.034, NaCl 0.49 ± 0.136
Procedure, shortened: (§1)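 Test article is given to RA rats at 30 mg/kg.2d, and synoviocytes are isolated and cultured. Secreted TNF-α and PGE2 in the culture medium are measured by a shared protocol, while IL-1β release is measured by a different protocol. Comparison groups are saline (NaCl) and normal control rats.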

[2] = system: PGE2 secreted by synoviocyte; test: Content of PGE2 in culture supernatant of synoviocyte of RA model rats given test compound; type: in vivo; conditions: rat RA model, dose 30 mg/kg.2d; normal control 8.34 ± 1.29, NaCl 32.44 ± 10.32
Procedure, shortened: as §1

cancer stem cells = test: Survival rate of cancer stem cells after test compound is added (flow cytometry, Annexin V-FITC/PI, clinical specimen); type: cell-based, patient; conditions: Homo sapiens, 18 h
Procedure, shortened: (§2)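 Mononuclear cells from fresh or cryopreserved clinical samples, isolated by Ficoll gradient and held in serum-free IMDM (1×10^6/mL), received compound for 18 h. After labelling with marker antibodies (CD34+CD38+ for AML), Annexin V-FITC and PI staining was analysed by flow cytometry.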

cancer cells = test: Survival rate of cancer cells after test compound is added (flow cytometry, Annexin V-FITC/PI, clinical specimen); type: cell-based, patient; conditions: Homo sapiens, 18 h, read-out: Survival rate (%) All cells (Stem cells and ordinary cells)
Procedure, shortened: as §2

normal cells = test: Survival rate of normal cells after test compound is added (flow cytometry, Annexin V-FITC/PI); type: cell-based; conditions: 18 h
Procedure, shortened: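 Patient specimens (e.g. AML, CD34+/CD38+ stem-cell marker) separated on Ficoll; mononuclear cells at 1×10^6/mL in serum-free IMDM treated 18 h with compound. Cells stained for stem-cell markers, then Annexin V-FITC/PI, and apoptosis measured by flow cytometry within one hour.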

[3] = Head and neck squamous cell carcinomas
[4] = read-out: Survival rate (%) All cells (Stem cells and ordinary cells)
[5] = read-out: Survival rate (%) Stem cells

`C=C1C(=O)O[C@H]2[C@H]1CC[C@@](C)(OC)C1CC[C@@](C)(O)[C@@H]12` (stereo partly drawn) [Compound 47] was tested, and the “Content of IL-1β in culture supernatant of synoviocyte (x ± s)” value [1] was 0.34 ± 0.058 ng/mL, the “Content of PGE2 in culture supernatant of synoviocyte (x ± s)” value [2] was 27.95 ± 3.67 ng/mL and the viability at 10 µM (cancer stem cells; AML) was 79%. For the same molecule, the viability at 20 µM (cancer stem cells; AML) was 73%, the viability at 10 µM (cancer stem cells; Brain glioma) was 85% and the viability at 20 µM (cancer stem cells; Brain glioma) was 79%. The viability at 10 µM (cancer stem cells; Brain tumor) was 81%, the viability at 20 µM (cancer stem cells; Brain tumor) was 75% and the viability at 10 µM (cancer stem cells; Breast cancer) was 82%. The viability at 20 µM (cancer stem cells; Breast cancer) was 73%, the viability at 10 µM (cancer stem cells; CLL) was 82% and the viability at 20 µM (cancer stem cells; CLL) was 73%. The viability at 10 µM (cancer stem cells; CML) was 85%, the viability at 20 µM (cancer stem cells; CML) was 77% and the viability at 10 µM (cancer stem cells; Children hepatoblastoma) was 85%. The viability at 20 µM (cancer stem cells; Children hepatoblastoma) was 79%, the viability at 10 µM (cancer stem cells; Colon adenocarcinoma) was 88% and the viability at 20 µM (cancer stem cells; Colon adenocarcinoma) was 81%. The viability at 10 µM (cancer stem cells; Colorectal cancer) was 79%, the viability at 20 µM (cancer stem cells; Colorectal cancer) was 72% and the viability at 10 µM (cancer stem cells; Gastric cancer) was 82%. The viability at 20 µM (cancer stem cells; Gastric cancer) was 76%, the viability at 10 µM (cancer stem cells; Gastrointestinal tumor) was 78% and the viability at 20 µM (cancer stem cells; Gastrointestinal tumor) was 74%. For the same molecule, the viability at 10 µM (cancer stem cells; Glioma) was 87%, the viability at 20 µM (cancer stem cells; Glioma) was 76% and the viability at 10 µM (cancer stem cells; [3]) was 86%. It also gave a viability at 20 µM (cancer stem cells; [3]) of 78%, a viability at 10 µM (cancer stem cells; Laryngeal cancer) of 85% and a viability at 20 µM (cancer stem cells; Laryngeal cancer) of 79%. For the same molecule, the viability at 10 µM (cancer stem cells; Liver cancer) was 82%, the viability at 20 µM (cancer stem cells; Liver cancer) was 73% and the viability at 10 µM (cancer stem cells; Lung adenocarcinoma) was 85%. The viability at 20 µM (cancer stem cells; Lung adenocarcinoma) was 77%, the viability at 10 µM (cancer stem cells; Lung cancer) was 85% and the viability at 20 µM (cancer stem cells; Lung cancer) was 79%. For the same molecule, the viability at 10 µM (cancer stem cells; Malignant melanoma) was 82%, the viability at 20 µM (cancer stem cells; Malignant melanoma) was 76% and the viability at 10 µM (cancer stem cells; Nasopharynx cancer) was 82%. It also gave a viability at 20 µM (cancer stem cells; Nasopharynx cancer) of 74%, a viability at 10 µM (cancer stem cells; Ovarian cancer) of 84% and a viability at 20 µM (cancer stem cells; Ovarian cancer) of 78%. The viability at 10 µM (cancer stem cells; Pancreatic cancer) was 84%, the viability at 20 µM (cancer stem cells; Pancreatic cancer) was 78% and the viability at 10 µM (cancer stem cells; Prostate cancer) was 85%. It also gave a viability at 20 µM (cancer stem cells; Prostate cancer) of 77%, a viability at 10 µM (cancer stem cells; Retinoblastoma) of 81% and a viability at 20 µM (cancer stem cells; Retinoblastoma) of 75%. The viability at 10 µM (cancer stem cells; Skin cancer) was 84%, the viability at 20 µM (cancer stem cells; Skin cancer) was 78% and the viability at 10 µM (cancer cells; AML) was 88%. For the same molecule, the viability at 20 µM (cancer cells; AML) was 82%, the viability at 10 µM (cancer cells; Brain glioma) was 93% and the viability at 20 µM (cancer cells; Brain glioma) was 86%. It also gave a viability at 10 µM (cancer cells; Brain tumor) of 87%, a viability at 20 µM (cancer cells; Brain tumor) of 83% and a viability at 10 µM (cancer cells; Breast cancer) of 91%. The viability at 20 µM (cancer cells; Breast cancer) was 87%, the viability at 10 µM (cancer cells; CLL) was 91% and the viability at 20 µM (cancer cells; CLL) was 87%. For the same molecule, the viability at 10 µM (cancer cells; CML) was 92%, the viability at 20 µM (cancer cells; CML) was 89% and the viability at 10 µM (cancer cells; Children hepatoblastoma) was 88%. It also gave a viability at 20 µM (cancer cells; Children hepatoblastoma) of 85%, a viability at 10 µM (cancer cells; Colon adenocarcinoma) of 91% and a viability at 20 µM (cancer cells; Colon adenocarcinoma) of 89%. For the same molecule, the viability at 10 µM (cancer cells; Colorectal cancer) was 88%, the viability at 20 µM (cancer cells; Colorectal cancer) was 81% and the viability at 10 µM (cancer cells; Gastric cancer) was 88%. The viability at 20 µM (cancer cells; Gastric cancer) was 89%, the viability at 10 µM (cancer cells; Gastrointestinal tumor) was 89% and the viability at 20 µM (cancer cells; Gastrointestinal tumor) was 81%. The viability at 10 µM (cancer cells; Glioma) was 94%, the viability at 20 µM (cancer cells; Glioma) was 87% and the viability at 10 µM (cancer cells; [3]) was 93%. It also gave a viability at 20 µM (cancer cells; [3]) of 92%, a viability at 10 µM (cancer cells; Laryngeal cancer) of 93% and a viability at 20 µM (cancer cells; Laryngeal cancer) of 86%. For the same molecule, the viability at 10 µM (cancer cells; Liver cancer) was 91%, the viability at 20 µM (cancer cells; Liver cancer) was 87% and the viability at 10 µM (cancer cells; Lung adenocarcinoma) was 92%. It also gave a viability at 20 µM (cancer cells; Lung adenocarcinoma) of 89%, a viability at 10 µM (cancer cells; Lung cancer) of 93% and a viability at 20 µM (cancer cells; Lung cancer) of 86%. The viability at 10 µM (cancer cells; Malignant melanoma) was 89%, the viability at 20 µM (cancer cells; Malignant melanoma) was 86% and the viability at 10 µM (cancer cells; Nasopharynx cancer) was 88%. It also gave a viability at 20 µM (cancer cells; Nasopharynx cancer) of 85%, a viability at 10 µM (cancer cells; Ovarian cancer) of 91% and a viability at 20 µM (cancer cells; Ovarian cancer) of 88%. It also gave a viability at 10 µM (cancer cells; Pancreatic cancer) of 91%, a viability at 20 µM (cancer cells; Pancreatic cancer) of 88% and a viability at 10 µM (cancer cells; Prostate cancer) of 92%. The viability at 20 µM (cancer cells; Prostate cancer) was 89%, the viability at 10 µM (cancer cells; Retinoblastoma) was 87% and the viability at 20 µM (cancer cells; Retinoblastoma) was 83%. For the same molecule, the viability at 10 µM (cancer cells; Skin cancer) was 91%, the viability at 20 µM (cancer cells; Skin cancer) was 88% and the viability at 10 µM (normal cells; [4]) was 95%. It also gave a viability at 10 µM (normal cells; [5]) of 93%, a viability at 20 µM (normal cells; [4]) of 94% and a viability at 20 µM (normal cells; [5]) of 92%.
